Patent US9212164B2, “Pesticidal compositions and processes related thereto” (Dow AgroSciences LLC, priority 2012, dated 2015)

Columns and labels:
[1] = tested on: Cabbage Looper (CL) (Trichoplusia ni); assay: Bioassays on CL, 128-well diet tray assay; format: in vivo; conditions: 168 h, 50 μg/cm^2 on artificial diet, second instar larvae, five to seven days, 25° C., read-out: CL Rating (percent mortality)
Experimental: (§1) Certain molecules disclosed in this document were tested against BAW, CEW and CL using procedures described in the following examples. In the reporting of the results, the “BAW & CEW & CL Rating Table” was used (See Table Section).
Bioassays on CL (Trichoplusia ni)
Bioassays on CL were conducted using a 128-well diet tray assay. One to five second instar CL larvae were placed in each well (3 mL) of the diet tray that had been previously filled with 1 mL of artificial diet to which 50 μg/cm^2 of the test compound (dissolved in 50 μL of 90:10 acetone-water mixture) had been applied (to each of eight wells) and then allowed to dry. Trays were covered with a clear self-adhesive cover, and held at 25° C., 14:10 light-dark for five to seven days. Percent mortality was recorded for the larvae in each well; activity in the eight wells was then averaged. The results are indicated in the table entitled “Table 4: Assay Results Part 2” (See Table Section).

[2] = tested on: Beet Armyworm (BAW) (Spodoptera exigua); assay: Bioassays on BAW, 128-well diet tray assay; format: in vivo; conditions: for mortality at 50 µg/cm2: Spodoptera exigua, 168 h, 50 μg/cm^2 on artificial diet, second instar larvae, five to seven days, 25° C., read-out: BAW Rating (percent mortality); for BAW Rating: Beet Armyworm, 128-well diet tray assay, rating C = Not Tested (omitted), D = no activity noticed
Experimental: as §1
Bioassays on BAW (Spodoptera exigua)
Bioassays on BAW were conducted using a 128-well diet tray assay. One to five second instar BAW larvae were placed in each well (3 mL) of the diet tray that had been previously filled with 1 mL of artificial diet to which 50 μg/cm^2 of the test compound (dissolved in 50 μL of 90:10 acetone-water mixture) had been applied (to each of eight wells) and then allowed to dry. Trays were covered with a clear self-adhesive cover, and held at 25° C., 14:10 light-dark for five to seven days. Percent mortality was recorded for the larvae in each well; activity in the eight wells was then averaged. The results are indicated in the tables entitled “Table 3: Assay Results Part 1” and “Table 4: Assay Results Part 2” (See Table Section).

Compound | mortality at 50 µg/cm2 [1] [%] | mortality at 50 µg/cm2 [2] [%] | BAW Rating [2]
O=C(NC1(C(=O)NCC(F)(F)F)CC1)c1ccc(/C=C/[C@H](c2cc(Cl)c(Cl)c(Cl)c2)C(F)(F)F)cc1C(F)(F)F (single isomer, unassigned) [Compound F8A] | 50 to 100 | 50 to 100 | –
O=C(NC1(C(=O)NCC(F)(F)F)CC1)c1ccc(/C=C/[C@@H](c2cc(Cl)c(Cl)c(Cl)c2)C(F)(F)F)cc1C(F)(F)F (single isomer, unassigned) [Compound F8B] | 50 to 100 | 50 to 100 | –
N#CCN1CCC(NC(=O)c2ccc(/C=C/C(c3cc(Cl)c(Cl)c(Cl)c3)C(F)(F)F)cc2Br)CC1 (stereo not drawn) [AC107] | – | – | B (More than 0 - Less than 50)
O=C(NC1CCN(C2COC2)CC1)c1ccc(/C=C/C(c2cc(Cl)c(Cl)c(Cl)c2)C(F)(F)F)cc1Br (stereo not drawn) [AC108, (E)-2-Bromo-N-(1-(oxetan-3-yl)piperidin-4-yl)-4-(4,4,4-trifluoro-3-(3,4,5-trichlorophenyl)but-1-en-1-yl)benzamide] | – | – | B (More than 0 - Less than 50)
O=C(NCCc1ccc(Cl)nc1)c1ccc(/C=C/C(c2cc(Cl)c(Cl)c(Cl)c2)C(F)(F)F)cc1Br (stereo not drawn) [AC113] | – | – | B (More than 0 - Less than 50)
CCNC(=O)NCc1ccc(/C=C/C(c2cc(Cl)cc(Cl)c2)C(F)(F)F)cc1Cl (stereo not drawn) [CC31, (E)-1-(2-Chloro-4-(3-(3,5-dichlorophenyl)-4,4,4-trifluorobut-1-en-1-yl)benzyl)-3-ethylurea] | – | – | B (More than 0 - Less than 50)
O=C(NC1(C(=O)NCC(F)(F)F)CC1)c1ccc(/C=C/C(c2cc(Cl)c(Cl)c(Cl)c2)C(F)(F)F)cc1Cl (stereo not drawn) [Compound F1, (E)-2-Chloro-4-(4,4,4-trifluoro-3-(3,4,5-trichlorophenyl)but-1-enyl)-N-(1-(2,2,2-trifluoroethylcarbamoyl)cyclopropyl)benzamide] | 50 to 100 | 50 to 100 | –
Cc1cc(/C=C/C(c2cc(Cl)c(Cl)c(Cl)c2)C(F)(F)F)ccc1C(=O)NC1(C(=O)NCC(F)(F)F)CC1 (stereo not drawn) [Compound F2] | 50 to 100 | 50 to 100 | –
O=C(NC1(C(=O)NCC(F)(F)F)CC1)c1ccc(/C=C/C(c2cc(Cl)c(Cl)c(Cl)c2)C(F)(F)F)cc1Br (stereo not drawn) [Compound F3] | 50 to 100 | 50 to 100 | –
O=C(NC1(C(=O)NCC(F)(F)F)CCC1)c1ccc(/C=C/C(c2cc(Cl)c(Cl)c(Cl)c2)C(F)(F)F)cc1Cl (stereo not drawn) [Compound F4] | 50 to 100 | 50 to 100 | –
O=C(NC1(C(=S)NCC(F)(F)F)CC1)c1ccc(/C=C/C(c2cc(Cl)c(Cl)c(Cl)c2)C(F)(F)F)cc1C(F)(F)F (stereo not drawn) [Compound F6, (E)-4-(4,4,4-Trifluoro-3-(3,4,5-trichlorophenyl)but-1-enyl)-N-(1-(2,2,2-trifluoroethylcarbamothioyl)cyclopropyl)-2-(trifluoromethyl)benzamide] | 50 to 100 | 50 to 100 | –
N#CC1(NC(=O)c2ccc(/C=C/C(c3cc(Cl)c(Cl)c(Cl)c3)C(F)(F)F)cc2Br)CC1 (stereo not drawn) [Compound F7, (E)-2-Bromo-N-(1-cyanocyclopropyl)-4-(4,4,4-trifluoro-3-(3,4,5-trichlorophenyl)but-1-en-1-yl)benzamide] | 50 to 100 | 50 to 100 | –
O=C(NC1(C(=O)NCC(F)(F)F)CC1)c1ccc(/C=C/C(c2cc(Cl)c(Cl)c(Cl)c2)C(F)(F)F)cc1C(F)(F)F (stereo not drawn) [Compound F8] | 50 to 100 | 50 to 100 | –
O=C(NC1CC1(F)F)c1ccc(/C=C/C(c2cc(Cl)c(Cl)c(Cl)c2)C(F)(F)F)cc1Br (stereo not drawn) [Compound P31] | 50 to 100 | 50 to 100 | –
O=C(NC1(C(=O)NCC(F)(F)F)CC1)c1ccc(/C=C/C(c2ccc(F)c(F)c2F)C(F)(F)F)cc1C(F)(F)F (stereo not drawn) [Compound P65] | 50 to 100 | 50 to 100 | –
O=C(NC1(C(=O)NCC(F)(F)F)CC1)c1ccc(/C=C/C(c2cc(Cl)c(Cl)cc2Cl)C(F)(F)F)cc1Br (stereo not drawn) [Compound P108] | 50 to 100 | 50 to 100 | –
O=C(NC1(C(=O)NCC(F)(F)F)CC1)c1ccc(/C=C/C(c2cc(Cl)c(Cl)cc2Cl)C(F)(F)F)cc1C(F)(F)F (stereo not drawn) [Compound P110] | 50 to 100 | 50 to 100 | –
O=C(NC1(C(=O)NCC(F)(F)F)CC1)c1ccc(/C=C/C(c2cccc(OC(F)(F)F)c2)C(F)(F)F)cc1Br (stereo not drawn) [Compound P153] | 50 to 100 | 50 to 100 | –
O=C(NC1(C(=O)NCC(F)(F)F)CC1)c1ccc(/C=C/C(c2cccc(OC(F)(F)F)c2)C(F)(F)F)cc1C(F)(F)F (stereo not drawn) [Compound P155] | 50 to 100 | 50 to 100 | –
O=C(NC1(C(=O)NCC(F)(F)F)CC1)c1ccc(/C=C/C(c2cc(F)cc(Br)c2)C(F)(F)F)cc1Br (stereo not drawn) [Compound P198] | 50 to 100 | 50 to 100 | –

Compound | mortality at 50 µg/cm2 [1] [%] | mortality at 50 µg/cm2 [2] [%] | BAW Rating [2]
O=C(NC1(C(=O)NCC(F)(F)F)CC1)c1ccc(/C=C/C(c2cc(F)cc(Br)c2)C(F)(F)F)cc1C(F)(F)F (stereo not drawn) [Compound P200] | 50 to 100 | 50 to 100 | –
Cc1cc(C(/C=C/c2ccc(C(=O)NC3(C(=O)NCC(F)(F)F)CC3)c(Br)c2)C(F)(F)F)ccc1Cl (stereo not drawn) [Compound P243] | 50 to 100 | 50 to 100 | –
Cc1cc(C(/C=C/c2ccc(C(=O)NC3(C(=O)NCC(F)(F)F)CC3)c(C(F)(F)F)c2)C(F)(F)F)ccc1Cl (stereo not drawn) [Compound P245] | 50 to 100 | 50 to 100 | –
Cc1cc(C(/C=C/c2ccc(C(=O)NC3(C(=O)NCC(F)(F)F)CC3)c(Br)c2)C(F)(F)F)cc(C)c1F (stereo not drawn) [Compound P333] | 50 to 100 | 50 to 100 | –
Cc1cc(C(/C=C/c2ccc(C(=O)NC3(C(=O)NCC(F)(F)F)CC3)c(C(F)(F)F)c2)C(F)(F)F)cc(C)c1F (stereo not drawn) [Compound P335] | 50 to 100 | 50 to 100 | –
Cc1cc(C(/C=C/c2ccc(C(=O)NC3(C(=O)NCC(F)(F)F)CC3)c(C(F)(F)F)c2)C(F)(F)F)ccc1F (stereo not drawn) [Compound P336] | 50 to 100 | 50 to 100 | –
O=C(NC1(C(=O)NCC(F)(F)F)CC1)c1ccc(/C=C/C(c2cc(Cl)cc(Br)c2)C(F)(F)F)cc1Br (stereo not drawn) [Compound P378] | 50 to 100 | 50 to 100 | –
O=C(NC1(C(=O)NCC(F)(F)F)CC1)c1ccc(/C=C/C(c2cc(Cl)cc(Br)c2)C(F)(F)F)cc1C(F)(F)F (stereo not drawn) [Compound P380] | 50 to 100 | 50 to 100 | –
O=C(NC1(C(=O)NCC(F)(F)F)CC1)c1ccc(/C=C/C(c2ccc(Br)c(Br)c2)C(F)(F)F)cc1Br (stereo not drawn) [Compound P423] | 50 to 100 | 50 to 100 | –
O=C(NC1(C(=O)NCC(F)(F)F)CC1)c1ccc(/C=C/C(c2ccc(Br)c(Br)c2)C(F)(F)F)cc1C(F)(F)F (stereo not drawn) [Compound P425] | 50 to 100 | 50 to 100 | –
O=C(NC1(C(=O)NCC(F)(F)F)CC1)c1ccc(/C=C/C(c2ccc(Cl)c([N+](=O)[O-])c2)C(F)(F)F)cc1Br (stereo not drawn) [Compound P468] | 50 to 100 | 50 to 100 | –
O=C(NC1(C(=O)NCC(F)(F)F)CC1)c1ccc(/C=C/C(c2ccc(Cl)c([N+](=O)[O-])c2)C(F)(F)F)cc1C(F)(F)F (stereo not drawn) [Compound P470] | 50 to 100 | 50 to 100 | –
N#Cc1cc(C(/C=C/c2ccc(C(=O)NC3(C(=O)NCC(F)(F)F)CC3)c(Br)c2)C(F)(F)F)ccc1F (stereo not drawn) [Compound P513] | 50 to 100 | 50 to 100 | –
N#Cc1cc(C(/C=C/c2ccc(C(=O)NC3(C(=O)NCC(F)(F)F)CC3)c(C(F)(F)F)c2)C(F)(F)F)ccc1F (stereo not drawn) [Compound P515] | 50 to 100 | 50 to 100 | –
Cc1cc(C(/C=C/c2ccc(C(=O)NC3(C(=O)NCC(F)(F)F)CC3)c(Br)c2)C(F)(F)F)ccc1F (stereo not drawn) [Compound P693] | 50 to 100 | 50 to 100 | –
O=C(NC1(C(=O)NCC(F)(F)F)CC1)c1ccc(/C=C/C(c2cc(Cl)c(Cl)c(Cl)c2)C(F)(F)C(F)(F)F)cc1Br (stereo not drawn) [Compound P1003] | 50 to 100 | 50 to 100 | –
O=C(NC1(C(=O)NCC(F)(F)F)CC1)c1ccc(/C=C/C(c2cc(Cl)c(Cl)c(Cl)c2)C(F)(F)C(F)(F)F)cc1C(F)(F)F (stereo not drawn) [Compound P1005] | 50 to 100 | 50 to 100 | –
O=C(NC1(C(=S)NCC(F)(F)F)CC1)c1ccc(/C=C/C(c2cc(Cl)c(Cl)c(Cl)c2)C(F)(F)F)cc1Br (stereo not drawn) [Compound P1009] | 50 to 100 | 50 to 100 | –
O=C(NC1(C(=S)NCC(F)(F)F)CC1)c1ccc(/C=C/C(c2cc(Cl)c(Cl)c(Cl)c2)C(F)(F)F)cc1Cl (stereo not drawn) [Compound P1010] | 50 to 100 | 50 to 100 | –
FC(F)(F)C(/C=C/c1ccc(-n2cncn2)cc1)c1ccccc1 (stereo not drawn) [DC3] | – | – | B (More than 0 - Less than 50)
